What all share (type): functional
Assay [1] concerns PC-12. The assay is described as follows: Antioxidant activity against H2O2-induced cell damage in rat PC12 cells assessed as cell viability at 5 uM after 24 hrs by MTT assay (reference value: 64.34 +/- 1.02 %). To be noted: PC-12, 24 h, read-out: Activity. In general terms: Tetrazolium assays rely on reduction of a dye to a coloured formazan, in cell work by metabolically active cells.

The subject of assay [2] is PC-12. The assay is described as follows: Antioxidant activity against H2O2-induced cell damage in rat PC12 cells assessed as cell viability at 1 uM after 24 hrs by MTT assay (reference value: 64.34 +/- 1.02 %). To be noted: for viability at 1 µM: PC-12, 24 h, read-out: Activity.
Assay [3] deals with PC-12. The assay is described as follows: Antioxidant activity against H2O2-induced cell damage in rat PC12 cells assessed as cell viability at 10 uM after 24 hrs by MTT assay (reference value: 64.34 +/- 1.02 %). The conditions noted are these: PC-12, 24 h, read-out: Activity.

With `CC1=C2C[C@]34O[C@](C)(C[C@H]2OC1=O)[C@H]3CC[C@@H]4C`, in the assay on PC-12 [1], the viability at 5 µM amounted to 71.6%. The viability at 1 µM in the assay with PC-12 [2] was determined as 67.4%. For the same compound, the viability at 10 µM with PC-12 [3] is 79.3%.
For `CC1=CC(=O)[C@]23C[C@]24[C@@]1(O)CC[C@]4(C)OC3(C)C`, the viability at 5 µM with PC-12 [1] came out at 74.8%. For the same compound, the viability at 1 µM in the assay with PC-12 [2] stood at 72.7%. The viability at 10 µM in the assay on PC-12 [3] stood at 77.2%.
As to `C=C[C@]1(C)C[C@@H]2OC(=O)C(C)=C2C[C@H]1C(=C)C` [ISOGERMAFURENOLIDE], the viability at 5 µM with PC-12 [1] came to 63.7%. Besides, the viability at 1 µM with PC-12 [2] worked out at 62.5%. The viability at 10 µM in the assay with PC-12 [3] was 67.2%.
Turning to `CC1=C2CC(=O)[C@@H](C)CC/C=C(\C)C[C@H]2OC1=O`, the viability at 5 µM in the assay on PC-12 [1] was 77.4%. For the same compound, the viability at 1 µM with PC-12 [2] stood at 65.4%. Moreover, the viability at 10 µM with PC-12 [3] was 80.2%.
As for `CC1=C2C[C@H]3[C@H](CC[C@]3(C)O)[C@@](C)(O)C[C@@H]2OC1=O` [ZEDOALACTONE C], the viability at 5 µM with PC-12 [1] turned out to be 77.3%. For the same compound, the viability at 1 µM in the assay with PC-12 [2] was 73.1%. Besides, the viability at 10 µM in the assay on PC-12 [3] was found to be 81%.
As for `CC1=C2CC[C@](C)(O)[C@H]2CC2=C(C)C(=O)O[C@@]2(O)C1`, the viability at 5 µM with PC-12 [1] is 76.8%. In the assay with PC-12 [2], the viability at 1 µM came to 82.7%. In the assay on PC-12 [3], the viability at 10 µM amounted to 74.3%.
The like results for `CC(C)=C1C[C@]2(O)[C@@H](CC[C@@H]2C)[C@@](C)(O)CC1=O` were, in that order, 64%, 66.3% and 65.2%.
With `Cc1cc2oc(=O)c(C)c-2cc2c1CC[C@H]2C`, in the assay with PC-12 [1], the viability at 5 µM came to 70.6%. Besides, the viability at 1 µM with PC-12 [2] amounted to 68.1%. In addition, the viability at 10 µM with PC-12 [3] turned out to be 72.5%.
As for `CC(=O)CCc1c(C)cc(O)c2c1C(=O)OC2(C)C`, in the assay with PC-12 [1], the viability at 5 µM stood at 68.7%. The viability at 1 µM in the assay with PC-12 [2] was 65.4%. Also, the viability at 10 µM in the assay with PC-12 [3] was 70.2%.
As for `CC(C)=C1C[C@H]2[C@@H](CC[C@]2(C)O)[C@](C)(O)CC1=O` [ZEDOARONDIOL], the viability at 5 µM in the assay with PC-12 [1] was 70.3%. Further, in the assay on PC-12 [2], the viability at 1 µM is 81.9%. Besides, the viability at 10 µM with PC-12 [3] was 72.6%.
For `C=C1CC[C@H]2C(C)(C)CCC[C@]2(C)[C@H]1CCC1=CC(=O)OC1`, the viability at 5 µM with PC-12 [1] amounted to 70.2%. Moreover, the viability at 1 µM in the assay with PC-12 [2] was 67.1%. In addition, in the assay with PC-12 [3], the viability at 10 µM was 72.1%.
The like results for `CC1=C2C[C@H]3[C@H](CC[C@]3(C)O)[C@@](C)(O)C[C@]2(O)OC1=O` [ZEDOAROLIDE B] were, in that order, 77%, 76.1% and 80.7%.
For `CC1=C2CC[C@](C)(O)[C@H]2CC2=C(C)C(=O)OC2=C1`, the viability at 5 µM in the assay with PC-12 [1] is 84%. Further, the viability at 1 µM in the assay with PC-12 [2] is 82.9%. Moreover, in the assay on PC-12 [3], the viability at 10 µM was determined as 88.7%.
As to VITAMIN E, the Activity in the assay with PC-12 [2] is 80.9%.
`C[C@]12CCC[C@](C)(C(=O)O)[C@@H]1CC[C@@]13CC[C@@H]([C@H](O)[C@H]21)[C@]1(C)O[C@H]31`: the viability at 5 µM with PC-12 [1] turned out to be 70.8%. Further, the viability at 1 µM in the assay with PC-12 [2] stood at 68.2%. In addition, the viability at 10 µM in the assay on PC-12 [3] is 72.3%.
As for `CC1=C2C[C@@H]3[C@](C)(CCC[C@@]3(C)O)C[C@]2(O)OC1=O`, in the assay on PC-12 [1], the viability at 5 µM turned out to be 80.9%. In the assay with PC-12 [2], the viability at 1 µM turned out to be 81.2%. For the same compound, the viability at 10 µM with PC-12 [3] turned out to be 90.1%.
Consider `CC1=C2C[C@@]34O[C@]2(OC1=O)[C@H](O)[C@](C)(O)[C@@H]3CC[C@H]4C`, for which, in the assay with PC-12 [1], the viability at 5 µM is 77.7%. Moreover, the viability at 1 µM in the assay on PC-12 [2] amounted to 73.7%. Moreover, the viability at 10 µM in the assay with PC-12 [3] stood at 79.8%.
On to `CC(C)C1=CC[C@@](C)(O)[C@@H]2CC[C@@](C)(O)[C@@H]2C1`, for which the viability at 5 µM in the assay on PC-12 [1] came to 77.9%. The viability at 1 µM in the assay on PC-12 [2] turned out to be 69.5%. Also, the viability at 10 µM in the assay with PC-12 [3] amounted to 77.7%.
As for `C=C1CC[C@H]2C(C)(C)[C@@H](O)CC[C@]2(C)[C@H]1C/C=C1\CCOC1=O`, the viability at 5 µM in the assay with PC-12 [1] came out at 67.1%. Moreover, the viability at 1 µM with PC-12 [2] was 66.9%. In addition, the viability at 10 µM in the assay with PC-12 [3] is 67.4%.
Regarding `C=C(C)C(=O)C[C@@]12OC(=O)C=C(C)[C@@H]1CC[C@@H]2C`, in the assay with PC-12 [1], the viability at 5 µM amounted to 72.4%. Besides, in the assay on PC-12 [2], the viability at 1 µM worked out at 69.3%. Moreover, the viability at 10 µM in the assay with PC-12 [3] came to 75.9%.
With `CC1=CC(=O)O[C@@]2(CC(=O)C(C)C)[C@@H](C)CC[C@@H]12`, the viability at 5 µM with PC-12 [1] turned out to be 83.5%. Further, in the assay with PC-12 [2], the viability at 1 µM turned out to be 73.4%. Besides, the viability at 10 µM in the assay with PC-12 [3] is 89%.
As for `CCO[C@]12C/C(C)=C/CC[C@@H](C)C(=O)CC1=C(C)C(=O)O2`, the viability at 5 µM in the assay with PC-12 [1] was 80.9%. In addition, in the assay with PC-12 [2], the viability at 1 µM was found to be 77.7%. In the assay with PC-12 [3], the viability at 10 µM worked out at 85.2%.
Turning to `Cc1cc(=O)c(C(C)C)cc2c1CC[C@]2(C)O`, the viability at 5 µM in the assay on PC-12 [1] was 76.7%. In the assay with PC-12 [2], the viability at 1 µM amounted to 77.7%. Moreover, the viability at 10 µM in the assay with PC-12 [3] was 75.2%.
The like results for `CC1=CC(=O)C(=C(C)C)C[C@@]2(O)[C@H](C)CC[C@@H]12` were, in that order, 68.8%, 69.5% and 76.2%.
Consider `CC1=C2C[C@@H]3[C@H](CC[C@@]3(C)O)[C@](C)(O)C[C@H]2OC1=O`, for which the viability at 5 µM with PC-12 [1] came out at 72%. Moreover, in the assay with PC-12 [2], the viability at 1 µM turned out to be 67.5%. Also, the viability at 10 µM in the assay on PC-12 [3] was found to be 76.4%.
As for `CC1=C2CC(=O)[C@@H](C)CC/C=C(\C)C[C@@]2(O)OC1=O`, in the assay on PC-12 [1], the viability at 5 µM is 76.1%. Besides, in the assay on PC-12 [2], the viability at 1 µM turned out to be 74.5%. Further, the viability at 10 µM in the assay with PC-12 [3] came to 78.4%.
As for `CC1=CC(=O)C(=C(C)C)C[C@H]2[C@H]1CC[C@]2(C)O` [PROCURCUMENOL], the viability at 5 µM in the assay on PC-12 [1] came to 70%. For the same compound, in the assay on PC-12 [2], the viability at 1 µM amounted to 66.4%. For the same compound, in the assay with PC-12 [3], the viability at 10 µM is 69.6%.
For the compound `CC1(C)CCC[C@]2(C)[C@@H]1CC[C@](O)(CO)[C@H]2C/C=C1\CCOC1=O`, the viability at 5 µM in the assay on PC-12 [1] was 72.2%. In addition, in the assay on PC-12 [2], the viability at 1 µM is 67.6%. Besides, the viability at 10 µM in the assay with PC-12 [3] came to 74.1%.

(Values after ChEMBL document CHEMBL4130584, “Sesqui- and Diterpenoids from the Radix of Curcuma aromatica” (2017).)
